Laboratory results taken from paper PMC9964390, “Design, Synthesis and Phenotypic Profiling of Simplified Gedatolisib Analogues” (Pharmaceuticals, 2023).
Like-named read-outs stand apart in the source and are kept apart here.

What was measured:
CCRF-CEM [1] = test: MTT cell viability assay; format: cell-based, human; details: for CC50 / Emax: Homo sapiens; for CC50: 95% confidence interval in brackets; for Emax: read-out: Emax (maximum effect at maximum concentration used)
Method: (§1) For the evaluation of cellular cytotoxicity in cancer cell lines, the compounds were tested at concentrations ranging from 0.00003 μM to 150 μM. Immortalized cancer cells were selected: PC-3 (PTEN-mutated prostate adenocarcinoma), MCF-7 (PI3KCA-mutated breast carcinoma), K562 (P53-mutated chronic myeloid leukemia), CCRF-CEM (acute lymphoblastic leukemia with mutation in PTEN) and MOLT-4 (acute lymphoblastic leukemia with mutation in PI3KR1/PTEN). Peripheral blood mononuclear cells (PBMCs) were used to determine the cytotoxic selectivity index (SI). All immortalized cells were cultured in RPMI 1640 medium with 10% (v/v) FBS, streptomycin + penicillin, at 37 °C in a humidified incubator containing 5% CO2.
(§2) Cell viability was assessed by the MTT assay. The lines selected for this study were plated according to their respective densities, which ranged from 3 × 10^4 to 4 × 10^4 cells per well. Subsequently, they were treated with test compounds at different concentrations (0.00003 μM to 150 μM), gedatolisib and GSK-1059615.
(§3) After incubation, the plates are centrifuged at 440× g for 10 min. Then, 110 μL of the supernatant was withdrawn and each well received 10μL of the MTT solution. The plate was again incubated in an oven at 37 °C and 5% CO2 for 3 to 4 h. At the end of the incubation time, 100 μL of SDS-HCL detergent was added to solubilize the formazan crystals. The plate was shaken on an automatic overnight shaker and then read at a wavelength of 595 nm on the Molecular Devices Spectramax M5 plate reader.

MOLT-4 = test: MTT cell viability assay; format: cell-based, human; details: for CC50 / Emax: Homo sapiens; for CC50: 95% confidence interval in brackets; for Emax: read-out: Emax (maximum effect at maximum concentration used); for loss of cytotoxic potency at 48 h versus 72 h (MTT): MOLT-4
Method: as §1, §2, §3

CCRF-CEM [2] = test: Muse Count & Viability Kit (flow cytometry); details: for CC50 / Emax: Homo sapiens
Method: Cell viability, cell death pattern, cell cycle and detection of PI3K activation were evaluated, and each analysis was performed using specific protocols of the Guava Muse Cell Analyzer.
In total, 20 µL of the cell solution was added to 380 µL of the reagent in 1 mL Eppendorf tubes and incubated for 5 min at room temperature in the dark. Samples from three independent experiments carried out in duplicate were read on the cytometer, followed by statistical analysis of the histograms on Prism6 to determine the CC50.

CCRF-CEM cell line [3] = test: Muse Annexin V and Dead Cell Kit (phosphatidylserine externalization, membrane integrity); format: cell-based, human; details: for reduction of cell viability / total apoptosis: CCRF-CEM, at its CC50 value
Method: For quantitative analysis of live, early and late apoptosis, and cell death on both the CCRF-CEM and MOLT-4 cell lines, treated with gedatolisib and compound 5f (LASSBio-2252), the Muse® Annexin V and Dead Cell Kit was used. Compounds were studied using three concentrations.
The Annexin V and Dead Cell Kit (catalog n^o. MCH100105, Luminex) contains Annexin V, a phospholipid marker phosphatidylserine, and the molecule 7-AAD, a DNA marker for cells with a ruptured membrane. […] After incubation for 20 min at room temperature, the samples were read on the cytometer. The data with the histograms generated contain information on the percentage of viable cells, in early apoptosis, late apoptosis and dead cells. Samples from three independent experiments were performed in duplicate, and then statistical analysis was performed using the Prism6 statistical program.

[4] = test system: PC-3, MCF7, K562, CCRF-CEM and MOLT-4; test: MTT single-concentration cytotoxicity screening; format: cell-based, human; details: single concentration 30 μM; reduction in cell viability ≥ 50% selected for CC50
Method: In a first approach, the assay was validated with two standard drugs: gedatolisib and GSK-1059615.
After understanding the response profile of the selected cell lines to the treatment with gedatolisib and GSK-1059615, we investigated the cytotoxic activity of compounds 5a-f at a single concentration (30 μM). […] During the experiments, compounds 5a (LASSBio-2250), 5b (LASSBio-2251) and 9 (CAS-942789959) were insoluble and precipitated on the culture medium. Therefore, they were evaluated also at the screening concentration of 1 μM.
as §2, §3

MCF7 = test: Muse Count & Viability Kit (flow cytometry); design: Emax: dose or concentration left out as unconfirmed
CCRF-CEM cell line [5] = test: Muse Cell Cycle Kit; format: cell-based, human; details: 48 h
Method: The Guava Muse Luminex® Cell Cycle Kit (catalog n^o MCH100106, Luminex) contains the DNA marker propidium iodide (PI) and RNAse A to avoid nonspecific labelling.
After 48 h of incubation in an incubator at 37 °C with 5% CO2, 1 mL of the MOLT-4 cell solution and 500 µL of the CCRF-CEM cell solution, contained in the wells, were transferred to Eppendorf tubes and centrifuged at 300× g for 5 min. The volumes used ensured that the cell density remained within the recommended range (1 × 10^6 to 4 × 10^6 cells/mL) at the end of the 48 h incubation period.
The supernatant was discarded, and the pellet formed was resuspended in 1 mL of saline PBS, homogenised, and centrifuged at 300× g for 5 min. The formed pellet was resuspended in residual PBS by homogenization. To fix cellular events, 1 mL of ice-cold 70% alcohol was added dropwise into the tubes and vortexed at medium speed. The samples were incubated, before staining, for at least 3 h at −20 °C.
At the end of the incubation time at −20 °C, the samples were centrifuged at 300× g for 5 min, and then the supernatant was discarded and resuspended in 250 µL of PBS. The samples were again centrifuged at 300× g for 5 min and the supernatant discarded, which constituted the washing step. The pellet formed was resuspended in 200 µL of the Guava Muse Luminex® Cell Cycle, and the tubes were incubated for 30 min at room temperature, away from light.
After incubation, the samples were read in Guava Muse Luminex®, and the data with the histograms generated, which contain information on the percentage of the different phases of the cell cycle, were analysed in the statistical program Prism6. This methodology was performed in duplicate of three independent experiments.

[6] = test system: MCF7 (breast cancer cells); design: method as in Mallon and coworkers [15]; details: ref Mallon and coworkers [15]; cited from earlier work
[7] = Homo sapiens, CCRF-CEM 48 h, read-out: % of cells, Viable

Compound	loss of cytotoxic potency at 48 h versus 72 h (MTT) (CCRF-CEM [1])	CC50 (CCRF-CEM [1]; 48 h MTT)	Emax (CCRF-CEM [1]; 48 h MTT)	CC50 (CCRF-CEM [1]; 72 h MTT)	Emax (CCRF-CEM [1]; 72 h MTT)	CC50 (MOLT-4; MOLT-4, 48 h MTT)	Emax (MOLT-4; MOLT-4, 48 h MTT)	CC50 (MOLT-4; MOLT-4, 72 h MTT)	Emax (MOLT-4; MOLT-4, 72 h MTT)	loss of cytotoxic potency at 48 h versus 72 h (MTT) (MOLT-4)	loss of potency in Muse Count & Viability Kit 72 h versus 72 h MTT (CCRF-CEM [2])	CC50 (CCRF-CEM [2]; 48 h)	Emax (CCRF-CEM [2]; 48 h)	CC50 (CCRF-CEM [2]; 72 h)	Emax (CCRF-CEM [2]; 72 h)	reduction of cell viability (CCRF-CEM cell line [3])	total apoptosis (CCRF-CEM cell line [3])	viability at 50 µM (CCRF-CEM cell line [3]; [7])	other results
c1ccc(N2CCN(c3nc(N4CCCNCC4)nc(N4CCOCC4)n3)CC2)cc1 [5f, 4-(4-(1,4-Diazepan-1-yl)-6-(4-phenylpiperazin-1-yl)-1,3,5-triazin-2-yl)morpholine]	less than 2 fold	11.1 µM	69%	6.25 µM	93%	36.5 µM	80%	9.76 µM	93%	less than 4 fold	≤ 10 fold	49 µM	95%	53.1 µM	96%	about 50%	about 50%	47%	viability at 5 µM (CCRF-CEM cell line [3]; Homo sapiens, CCRF-CEM 48 h, 5 μM, read-out: % of cells, Viable): 87%; cytotoxic effect on leukemia cell lines at single concentration [4]: cytotoxic effect; cytotoxic activity (MCF7; MCF-7, Muse Count & Viability Kit, 72 h): inactive; action on the cell cycle (CCRF-CEM cell line [5]; its CC50 value (50 µM)): cell cycle arrest in G0/G1
CN(C)C1CCN(C(=O)c2ccc(NC(=O)Nc3ccc(-c4nc(N5CCOCC5)nc(N5CCOCC5)n4)cc3)cc2)CC1 [Gedatolisib, gedatolisib]	~10 fold	0.14 µM	94%	0.03 µM	90%	0.15 µM	92%	0.02 µM	93%	~10 fold	100 fold	5.88 µM	94%	6.15 µM	94%	about 50%	about 50%	7%	CC50 [6]: 36 nM; viability at 0.6 µM (CCRF-CEM cell line [3]; Homo sapiens, CCRF-CEM 48 h, 0.6 μM, read-out: % of cells, Viable): 68%; viability at 6 µM (CCRF-CEM cell line [3]; Homo sapiens, CCRF-CEM 48 h, 6 μM, read-out: % of cells, Viable): 55%; Emax (MCF7; Homo sapiens, MCF7, 72 h, read-out: maximum effect (Emax)): 54%; action on the cell cycle (CCRF-CEM cell line [5]; both concentrations tested (0.6 µM and 6 µM)): cell cycle arrest in the G0/G1 phase
